The values that follow come from PubChem BioAssay (NCI).

Common to all, as to assay: DTP human tumour cell line panel, 48 h
Test [1] relates to CCRF-CEM leukemia.
The test system of test [2] is A549 NSCLC.
Test [3] has as its system NCI-H23 lung.
Test [4] has as its system HCT-116 colon.
The subject of test [5] is A498 renal.
Test [6] deals with NCI/ADR-RES ovarian.
Test [7] concerns OVCAR-5 ovarian.
The test system of test [8] is CAKI-1 renal.
In test [9] the test system is SK-MEL-5 melanoma.
Test [10] concerns COLO 205 colon.

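Grown in 96-well plates, cells were treated for 48 hours with each compound at five concentrations. Insufficient inhibition: endpoint recorded as highest concentration tested. GI50: concentration for 50% inhibition of growth. At the TGI there is no net growth.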 Where only a bound is given, the exact number is not on record here.

As for `NCCNc1nc2ccc(F)cc2c2c(=O)c3cc(F)ccc3sc12`, the GI50 is 2.11 µM in [1]; 1.73 µM in test [2]; 1.65 µM in [3]; 1.61 µM in test [4]; 1.64 µM in test [5]; 1.7 µM in [6]. Besides, the GI50 was 1.77 µM in test [7], 1.08 µM in test [8] and 1.68 µM in [9]. Further, the TGI in [1] amounted to 4.54 µM; in test [2] it was 3.38 µM; in test [3], 3.18 µM; in test [4], 2.96 µM; in [5] it was 6.9 µM; in test [6], 3.33 µM. For the same compound, the TGI in test [7] came to 3.67 µM; in test [8], 2.78 µM; in test [9], 3.25 µM.
Turning to `NC1=CC(=O)C(=O)c2ccccc21`, the GI50 is 28.2 µM in [2]; 26.6 µM in test [10]; 13.2 µM in [3]; 12.7 µM in test [4]; 79.2 µM in [5]; 12.7 µM in test [6]. Besides, the GI50 was 18.9 µM in test [7], 19.7 µM in [8] and 14.7 µM in [9]. The TGI is 97.6 µM in test [2]; greater than 100 µM in test [10]; 34.6 µM in test [3]; 28 µM in test [4]; greater than 100 µM in test [5]; 53.3 µM in test [6]. The total growth inhibition concentration (TGI) in test [7] stood at 41.1 µM; in [8] it was 53.3 µM; in [9], 28 µM.
On to `Cn1c(=S)c2[nH]c(SCc3cccnc3)nc2n(C)c1=O`, for which the TGI in test [2], in test [10], in test [3], in test [4], in test [5] and in test [6] was greater than 100 µM each time. Further, the TGI in test [7], in test [8] and in test [9] was greater than 100 µM each time.
In the case of `CCC1C[N+]2=C(c3cc(OC)c(OC)cc3CC2)c2c1cc1n2CCc2cc(OC)c(OC)cc2-1` (stereo not drawn), the GI50 in test [1] is 3.68 µM; in test [2] it was 11.8 µM; in test [10], 1.23 µM; in test [3], 2.77 µM; in [4], 2.89 µM; in test [5] it was 7.36 µM. Also, the GI50 in test [6] is 64.3 µM; in test [7] it was 12.1 µM; in test [8], 20.6 µM; in test [9] it was 1.26 µM. Besides, the TGI in test [1] was 42.4 µM; in test [2], greater than 100 µM; in test [10], 3.71 µM; in [3], 18.7 µM; in test [4], 13.1 µM; in test [5], 33 µM. In addition, the TGI in test [6] is greater than 100 µM; in test [7], greater than 100 µM; in [8], 65.7 µM; in [9], 2.61 µM.
With `COc1ccc(/C=N/C2=NNC(C)(c3ccccc3O)N2C(Cc2c[nH]c3ccccc23)C(=O)O)cc1` (stereo not drawn), the GI50 was 3.04 µM in test [1]; 4.44 µM in test [2]; 1.86 µM in test [10]; 2.28 µM in test [3]; 2.52 µM in [4]; 3.1 µM in test [5]. The figures for the GI50 in [6], in test [7] and in test [9] were 2.76 µM, 3.06 µM and 1.66 µM, respectively. The TGI came to 40.4 µM in test [1]; 30.5 µM in test [2]; 4.44 µM in test [10]; 8.61 µM in [3]; 10.2 µM in test [4]; 9.03 µM in test [5]. The TGI in test [6] turned out to be 14 µM; in [7], 19 µM; in test [9] it was 3.09 µM.
`COc1ccc2cn3c4ccc(O)cc4[nH]c(=O)c3c2c1`: the GI50 is 0.0845 µM in [1]; 0.231 µM in test [2]; 0.348 µM in test [10]; 0.402 µM in [3]; 0.046 µM in [4]; 0.404 µM in test [5]. Also, the GI50 was 0.0675 µM in test [6], 2.72 µM in [7], 0.179 µM in test [8] and 0.0257 µM in [9]. Further, the TGI in test [1] was 12.2 µM; in test [2], 18.1 µM; in test [10], 2.87 µM; in test [3], 15.7 µM; in test [4], 1.95 µM; in [5], 17 µM. Also, the total growth inhibition concentration (TGI) in test [6] stood at 14.2 µM; in test [7], 21.5 µM; in test [8] it was 17 µM; in test [9], 3.45 µM.
On to `C=C(C)C1Cc2cc(C(C)=O)ccc2O1` (stereo not drawn), for which the TGI in [1], in test [2], in test [10], in test [3], in test [4] and in test [6] was greater than 100 µM throughout. For the same compound, the TGI in [7], in test [8] and in [9] was greater than 100 µM each time.
For the compound `Cc1ccc(Nn2c(SCC(=O)Nc3nc(-c4ccccc4)cs3)nc(C)c2C)cc1`, the GI50 in test [2] is 3.03 µM; in [10], 3.98 µM; in test [3], 3.42 µM; in test [4], 2.82 µM; in [5], 17.4 µM; in test [6] it was 3.04 µM. The GI50 in test [7] is 17.2 µM; in test [8], 1.86 µM; in [9] it was 2 µM. Besides, the TGI in [2] is greater than 100 µM; in test [10] it was 34.4 µM; in [3], greater than 100 µM; in test [4] it was 26.5 µM; in [5] it was greater than 100 µM; in test [6] it was 22.2 µM. The TGI in test [7] was greater than 100 µM; in [8], 6.1 µM; in test [9], 5.72 µM.
As for `O=C1c2ccccc2-c2c1c1ccc([N+](=O)[O-])cc1c(=O)n2CCN1CCOCC1`, the GI50 is 20.1 µM in [1]; greater than 100 µM in test [2]; greater than 100 µM in test [10]; greater than 100 µM in test [3]; greater than 100 µM in test [4]; greater than 100 µM in [6]. Also, the GI50 is greater than 100 µM in test [7], 41.3 µM in test [8] and greater than 100 µM in test [9]. For the same compound, the TGI in test [1], in [2], in test [10], in test [3], in test [4] and in [6] was greater than 100 µM in each case. For the same compound, the TGI in test [7], in test [8] and in test [9] was greater than 100 µM throughout.
Consider `O=C(/C=C/c1cc(O)ccc1O)c1ccc(Cl)cc1`, for which the GI50 is 31.8 µM in [2]; 38.2 µM in [10]; 19.1 µM in test [3]; 16.7 µM in test [4]; 19.6 µM in test [6]; 17.4 µM in test [7]. Moreover, the GI50 in test [8] was 44 µM; in test [9] it was 55 µM. Also, the TGI in test [2] is greater than 100 µM; in test [10], greater than 100 µM; in [3], 43.3 µM; in [4] it was 41.6 µM; in test [6], 53.9 µM; in test [7], 38.7 µM. In addition, the TGI in test [8] and in test [9] was greater than 100 µM throughout.
Regarding `CCOc1cc(CCNC)c2c(ccc3ccc(OC)c(O)c32)c1OC`, the TGI was greater than 100 µM in test [1]; 39.6 µM in [2]; 42 µM in test [10]; 27.1 µM in test [3]; 22.1 µM in test [4]; 48.2 µM in test [6]. In addition, the TGI was found to be 29.5 µM in test [7], 34 µM in test [8] and 26.1 µM in test [9].
As for `Nc1ncc(-c2ccc3ncnc(N4CCc5cc(F)c(Cl)cc54)c3c2)cc1C(F)(F)F`, the GI50 is 2.68 µM in [1]; 1.56 µM in [2]; 2.93 µM in test [3]; 2.08 µM in test [4]; 2.05 µM in [6]; 1.23 µM in [7]. Further, the TGI in test [1], in [2], in test [3], in [4], in test [6] and in test [7] was greater than 100 µM in each case.
In the case of `CCN1C(=O)N[C@H]2[C@@H]3NC(=O)c4ccc(Cl)n4[C@@H]3C[C@]21O`, the GI50 in test [1] is 0.224 µM; in [2], 1.74 µM; in test [10] it was 0.369 µM; in test [3] it was 0.531 µM; in [4], 0.397 µM; in test [5] it was 1.82 µM. Further, the GI50 is 12 µM in [6], 2.87 µM in test [8] and 0.228 µM in test [9]. Also, the TGI in test [1] turned out to be 1.25 µM; in test [2], 17.6 µM; in test [10] it was 1.56 µM; in test [3], 4.52 µM; in test [4] it was 8.32 µM; in [5] it was 6.16 µM. Moreover, the TGI in [6] was 89.8 µM; in test [8], greater than 100 µM; in test [9] it was 0.711 µM.
Take `Clc1ccc2c(NCCNc3nc(N4CCCCC4)nc4ccccc34)ccnc2c1`: the GI50 in test [1] is 1.99 µM; in [2], 2.16 µM; in [10] it was 1.19 µM; in [3], 4.07 µM; in test [4] it was 0.441 µM; in test [5], 10.2 µM. The GI50 in test [6] was 3.5 µM; in test [7] it was 2.68 µM; in test [9], 1.86 µM. The TGI in test [1] is 45.4 µM; in test [2], 9.87 µM; in test [10], 2.84 µM; in test [3], 18.4 µM; in test [4] it was 1.63 µM; in test [5] it was 22.1 µM. The TGI is greater than 100 µM in [6], 10.1 µM in [7] and 3.31 µM in test [9].
As for `COc1ccc2c3c1OC1C4(CCC5C(C2)N(CC2CC2)CCC351)OCCO4` (stereo not drawn), the total growth inhibition concentration (TGI) in test [1], in test [2], in [10], in test [3], in test [4] and in [6] was greater than 100 µM each time. The TGI in test [7], in test [8] and in test [9] was greater than 100 µM in each case.
On to `Fc1cccc(-c2nc(-c3c[nH]c4ncccc34)cs2)c1`, for which the GI50 in test [1] was greater than 100 µM; in test [2], 17.7 µM; in [10] it was greater than 100 µM; in test [3] it was 71.1 µM; in [4], 7.9 µM; in test [6] it was greater than 100 µM. Besides, the GI50 in [7], in [8] and in test [9] was greater than 100 µM throughout. The total growth inhibition concentration (TGI) in test [1], in test [2], in [10], in test [3], in [4] and in test [6] was greater than 100 µM in each case. Moreover, the TGI in test [7], in test [8] and in test [9] was greater than 100 µM in each case.
Turning to `CC(NNC(=S)N1CCN(c2ccccn2)CC1)c1cccc[n+]1[O-]` (stereo not drawn), the TGI is 20.5 µM in [1]; greater than 100 µM in test [2]; greater than 100 µM in [10]; greater than 100 µM in test [3]; 13.7 µM in test [4]; 36.5 µM in [6]. Also, the TGI in test [8] is greater than 100 µM; in [9], 34.8 µM.
In the case of `CSc1ccc(NC(=O)CCl)cc1`, the TGI in [1] was greater than 10 µM; in [2], 5.79 µM; in [10], 8.02 µM; in [3], greater than 10 µM; in test [4] it was greater than 10 µM; in test [6], greater than 10 µM. Further, the TGI is greater than 10 µM in test [7], greater than 10 µM in test [8] and 3.63 µM in test [9].
On to `CNC(=O)NCCCCC(NC(=O)OCc1ccccc1)C(=O)OCc1ccccc1` (stereo not drawn), for which the TGI in test [1] was 38.5 µM; in test [2] it was greater than 100 µM; in test [10], 31.9 µM; in [3], 67.4 µM; in [4] it was greater than 100 µM; in [5], greater than 100 µM. Besides, the TGI was greater than 100 µM in [7], 48.6 µM in test [8] and greater than 100 µM in test [9].
With `CC1=C(C(=O)NCc2ccccc2)C(c2ccc(N(C)C)cc2)C(C(=O)NCc2ccccc2)=C(C)N1`, the TGI in test [1], in test [2], in test [10], in test [3], in test [4] and in test [5] was greater than 100 µM throughout. In addition, the TGI in [7], in test [8] and in test [9] was greater than 100 µM each time.

One may read the GI50 as the concentration that inhibits growth by half. Broadly, the TGI is the concentration giving total growth inhibition. A low value points to greater sensitivity of the cells.
